Source: patent US8309577B2, “Quinuclidine compounds as α-7 nicotinic acetylcholine receptor ligands” (Bristol-Myers Squibb Company, priority 2008, dated 2012)

Molecular target: T1, α-7 nicotinic acetylcholine receptor channel expressed in HEK 293 cells (Rattus norvegicus, UniProt Q05941)
T1 construct: expressed in transfected cells
Test: Ca2+-sensitive fluorescence-based FLIPR assay, α7 nicotinic ACh receptor channel function (agonist)
Type: cell-based
Settings: Table 1, HEK 293 cells, agonist Ca2+ flux
How it was run: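 Potency and efficacy derived from kinetic FLIPR Ca²⁺-flux fluorescence, recorded 3 min after compound addition in Hanks buffer following a 10 s baseline.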

[1] = FLIPR α7 activity rating (EC50, nM)

T1 sequence (Q05941 23-502): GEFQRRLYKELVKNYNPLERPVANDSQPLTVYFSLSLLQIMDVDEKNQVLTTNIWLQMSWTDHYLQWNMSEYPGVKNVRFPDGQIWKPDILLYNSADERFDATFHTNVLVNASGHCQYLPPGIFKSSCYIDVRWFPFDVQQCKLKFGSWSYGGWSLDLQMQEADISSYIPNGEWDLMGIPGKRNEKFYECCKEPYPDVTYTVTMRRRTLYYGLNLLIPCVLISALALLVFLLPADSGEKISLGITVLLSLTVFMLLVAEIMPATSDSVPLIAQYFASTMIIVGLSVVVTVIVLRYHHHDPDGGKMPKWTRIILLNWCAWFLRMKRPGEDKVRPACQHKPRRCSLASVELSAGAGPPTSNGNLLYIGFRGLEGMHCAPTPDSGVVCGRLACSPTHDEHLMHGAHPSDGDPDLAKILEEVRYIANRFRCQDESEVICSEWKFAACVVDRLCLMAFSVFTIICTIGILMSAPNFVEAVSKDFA

Structure (SMILES)	EC50 [1]	EC50 (FLIPR α7 (EC50, nM))
Fc1ccc2nc(NC3=NC[C@@]4(CN5CCC4CC5)O3)ccc2c1 [Example 140]	100 to 1000 nM	
c1csc(-c2cc(NC3=NC[C@@]4(CN5CCC4CC5)O3)n[nH]2)c1 [Example 143]	100 to 1000 nM	
Cc1cc(C)c2c(NC3=NC[C@@]4(CN5CCC4CC5)O3)nsc2n1 [Example 145]	1000 to 100000 nM	
c1ccc2c(NC3=NC[C@@]4(CN5CCC4CC5)O3)nccc2c1 [Example 146]	100 to 1000 nM	
c1ccc2c(NC3=NC[C@@]4(CN5CCC4CC5)O3)ncnc2c1 [Example 147]	100 to 1000 nM	
N#Cc1cnc(NC2=NC[C@@]3(CN4CCC3CC4)O2)cn1 [Example 148]	1000 to 100000 nM	
COc1cc(NC2=NC[C@@]3(CN4CCC3CC4)O2)nc(OC)n1 [Example 150]	100 to 1000 nM	
COc1ccc(-c2cnc(NC3=NC[C@@]4(CN5CCC4CC5)O3)nc2)cc1 [Example 151]	100 to 1000 nM	
c1ccc2c(c1)CCc1cnc(NC3=NC[C@@]4(CN5CCC4CC5)O3)nc1-2 [Example 153]	100 to 1000 nM	
Brc1cc(NC2=NC[C@@]3(CN4CCC3CC4)O2)ccn1 [Example 154]	1000 to 100000 nM	
Brc1cccc(NC2=NC[C@@]3(CN4CCC3CC4)O2)n1 [Example 155]	100 to 1000 nM	
Cc1ccc2nc(NC3=NC[C@@]4(CN5CCC4CC5)O3)ccc2c1 [Example 157]	100 to 1000 nM	
Fc1cccc2[nH]nc(NC3=NC[C@@]4(CN5CCC4CC5)O3)c12 [Example 158]	100 to 1000 nM	135 nM
Fc1ccc2[nH]nc(NC3=NC[C@@]4(CN5CCC4CC5)O3)c2c1 [Example 159]	< 100 nM	
c1cc(NC2=NC[C@@]3(CN4CCC3CC4)O2)cnn1 [Example 160]	1000 to 100000 nM	
Cc1oc2ncnc(NC3=NC[C@@]4(CN5CCC4CC5)O3)c2c1C [Example 161]	1000 to 100000 nM	
COc1ccc(-c2cc(NC3=NC[C@@]4(CN5CCC4CC5)O3)n[nH]2)cc1 [Example 162]	1000 to 100000 nM	
FC(F)(F)c1ccc2[nH]nc(NC3=NC[C@@]4(CN5CCC4CC5)O3)c2c1 [Example 163]	< 100 nM	
FC(F)(F)c1ccc2c(NC3=NC[C@@]4(CN5CCC4CC5)O3)n[nH]c2c1 [Example 164]	100 to 1000 nM	
c1ccc2c(NC3=NC[C@@]4(CN5CCC4CC5)O3)n[nH]c2c1 [Example 165]	< 100 nM	13 nM
COc1ccc(-c2ccnc(NC3=NC[C@@]4(CN5CCC4CC5)O3)n2)cc1 [Example 166]	< 100 nM	11 nM
Cc1sc2ncnc(NC3=NC[C@@]4(CN5CCC4CC5)O3)c2c1C [Example 167]	1000 to 100000 nM	
Brc1ccc2nc(NC3=NC[C@@]4(CN5CCC4CC5)O3)ncc2c1 [Example 168]	< 100 nM	
Cc1nc(NC2=NC[C@@]3(CN4CCC3CC4)O2)nc(C)c1Br [Example 171]	< 100 nM	
COc1cc(C)nc(NC2=NC[C@@]3(CN4CCC3CC4)O2)n1 [Example 172]	100 to 1000 nM	
COc1cccc(-c2csc(NC3=NC[C@@]4(CN5CCC4CC5)O3)n2)c1 [Example 173]	100 to 1000 nM	

Structure (SMILES)	EC50 [1]	EC50 (FLIPR α7 (EC50, nM))
Cc1cc(Cl)cc2sc(NC3=NC[C@@]4(CN5CCC4CC5)O3)nc12 [Example 174]	100 to 1000 nM	245 nM
Cc1cc(C)nc(NC2=NC[C@@]3(CN4CCC3CC4)O2)n1 [Example 176]	100 to 1000 nM	
c1ccc2c(c1)CCc1cnc(NC3=NC[C@@]4(CN5CCC4CC5)O3)nc1-2 [Example 177]	< 100 nM	
COc1nc(NC2=NC[C@@]3(CN4CCC3CC4)O2)ncc1Br [Example 178]	< 100 nM	17 nM
COc1ccc2nc(NC3=NC[C@@]4(CN5CCC4CC5)O3)c(C)cc2c1 [Example 179]	100 to 1000 nM	
Cc1cc(-c2ccccc2)nc(NC2=NC[C@@]3(CN4CCC3CC4)O2)n1 [Example 180]	100 to 1000 nM	
Cc1nnc(NC2=NC[C@@]3(CN4CCC3CC4)O2)nc1C [Example 182]	100 to 1000 nM	
FC(F)(F)Oc1ccc2[nH]nc(NC3=NC[C@@]4(CN5CCC4CC5)O3)c2c1 [Example 183]	< 100 nM	
Cc1cnc(NC2=NC[C@@]3(CN4CCC3CC4)O2)c(C)n1 [Example 186]	100 to 1000 nM	
Cc1nc(NC2=NC[C@@]3(CN4CCC3CC4)O2)sc1C [Example 187]	100 to 1000 nM	424 nM
c1ccc(-c2n[nH]c(NC3=NC[C@@]4(CN5CCC4CC5)O3)n2)cc1 [Example 188]	1000 to 100000 nM	
Cc1nc(NC2=NC[C@@]3(CN4CCC3CC4)O2)sc1-c1ccccc1 [Example 189]	100 to 1000 nM	
Cn1ccc(NC2=NC[C@@]3(CN4CCC3CC4)O2)n1 [Example 190]	1000 to 100000 nM	
Cc1cnc(NC2=NC[C@@]3(CN4CCC3CC4)O2)nc1-c1ccccc1 [Example 191]	< 100 nM	
c1ccc(-c2ccnc(NC3=NC[C@@]4(CN5CCC4CC5)O3)n2)nc1 [Example 192]	100 to 1000 nM	
Brc1cnc(NC2=NC[C@@]3(CN4CCC3CC4)O2)nc1-c1ccccc1 [Example 193]	< 100 nM	17 nM
c1cncc(-c2ccnc(NC3=NC[C@@]4(CN5CCC4CC5)O3)n2)c1 [Example 194]	< 100 nM	18 nM
c1ccc(-c2nc(NC3=NC[C@@]4(CN5CCC4CC5)O3)ncc2-n2cncn2)cc1 [Example 195]	1000 to 100000 nM	
c1ccc2c(c1)OCc1cnc(NC3=NC[C@@]4(CN5CCC4CC5)O3)nc1-2 [Example 196]	< 100 nM	13 nM
Fc1ccc(NC2=NC[C@@]3(CN4CCC3CC4)O2)nc1 [Example 197]	< 100 nM	
Brc1ccc(NC2=NC[C@@]3(CN4CCC3CC4)O2)nc1 [Example 198]	< 100 nM	15 nM
COc1cc(NC2=NC[C@@]3(CN4CCC3CC4)O2)ccn1 [Example 199]	1000 to 100000 nM	
Fc1ccc2nc(NC3=NC[C@@]4(CN5CCC4CC5)O3)sc2c1 [Example 200]	< 100 nM	
c1nc(NC2=NC[C@@]3(CN4CCC3CC4)O2)nc2c1CCCC2 [Example 201]	< 100 nM	
c1nc(NC2=NC[C@@]3(CN4CCC3CC4)O2)nc2c1CCC2 [Example 202]	< 100 nM	16 nM
Cc1nc(NC2=NC[C@@]3(CN4CCC3CC4)O2)nc(Cl)c1C [Example 203]	< 100 nM	

Structure (SMILES)	EC50 [1]	EC50 (FLIPR α7 (EC50, nM))
O=C1CCCc2nc(NC3=NC[C@@]4(CN5CCC4CC5)O3)ncc21 [Example 204]	100 to 1000 nM	
N#Cc1ccnc(NC2=NC[C@@]3(CN4CCC3CC4)O2)c1 [Example 205]	100 to 1000 nM	
FC(F)(F)c1cccc2c(NC3=NC[C@@]4(CN5CCC4CC5)O3)n[nH]c12 [Example 206]	1000 to 100000 nM	
c1ccc(-c2ccc(NC3=NC[C@@]4(CN5CCC4CC5)O3)nc2)cc1 [Example 207]	100 to 1000 nM	
COc1ccc2c(c1)nc(NC1=NC[C@@]3(CN4CCC3CC4)O1)n2C [Example 208]	1000 to 100000 nM	
c1cc(C2CC2)nc(NC2=NC[C@@]3(CN4CCC3CC4)O2)n1 [Example 209]	< 100 nM	
Brc1cnc(NC2=NC[C@@]3(CN4CCC3CC4)O2)nc1C1CC1 [Example 210]	< 100 nM	9 nM
COc1ccc2c(NC3=NC[C@@]4(CN5CCC4CC5)O3)nn(C)c2c1 [Example 211]	100 to 1000 nM	
COc1ccc2c(c1)c(NC1=NC[C@@]3(CN4CCC3CC4)O1)nn2C [Example 212]	1000 to 100000 nM	
Clc1cnc(NC2=NC[C@@]3(CN4CCC3CC4)O2)nc1 [Example 213]	< 100 nM	9 nM
Clc1ccc(NC2=NC[C@@]3(CN4CCC3CC4)O2)nc1 [Example 214]	< 100 nM	
Clc1ccnc(NC2=NC[C@@]3(CN4CCC3CC4)O2)c1 [Example 215]	< 100 nM	
CC(C)Oc1cnc(NC2=NC[C@@]3(CN4CCC3CC4)O2)cn1 [Example 216]	1000 to 100000 nM	
CN1CCCC1c1ccc(NC2=NC[C@@]3(CN4CCC3CC4)O2)nc1 (stereo partly drawn) [Example 217]	1000 to 100000 nM	
COCc1cc(NC2=NC[C@@]3(CN4CCC3CC4)O2)ncn1 [Example 218, (R)—N-(6-(methoxymethyl)pyrimidin-4-yl)-4H-1′-azaspiro[oxazole-5,3′-bicyclo[2.2.2]octan]-2-amine]	100 to 1000 nM	285 nM
c1nc(NC2=NC[C@@]3(CN4CCC3CC4)O2)ncc1OC1CCCC1 [Example 219, (R)—N-(5-(Cyclopentyloxy)pyrimidin-2-yl)-4H-1′-azaspiro[oxazole-5,3′-bicyclo[2.2.2]octan]-2-amine]	1000 to 100000 nM	
CC(C)c1cc2c(NC3=NC[C@@]4(CN5CCC4CC5)O3)ncnc2s1 [Example 223]	100 to 1000 nM	
CCc1cnc(NC2=NC[C@@]3(CN4CCC3CC4)O2)nc1 [Example 227]	100 to 1000 nM	
FC(F)(F)COc1cc(NC2=NC[C@@]3(CN4CCC3CC4)O2)ncn1 [Example 228, (R)—N-(6-(2,2,2-Trifluoroethoxy)pyrimidin-4-yl)-4H-1′-azaspiro[oxazole-5,3′-bicyclo[2.2.2]octan]-2-amine]	< 100 nM	
CC(C)c1nc(NC2=NC[C@@]3(CN4CCC3CC4)O2)ncc1Br [Example 229, (R)—N-(5-Bromo-4-isopropylpyrimidin-2-yl)-4H-1′-azaspiro[oxazole-5,3′-bicyclo[2.2.2]octan]-2-amine]	< 100 nM	
Brc1cnc(NC2=NC[C@@]3(CN4CCC3CC4)O2)nc1-c1cccnc1 [Example 230, (R)—N-(5-Bromo-4-(pyridin-3-yl)pyrimidin-2-yl)-4H-1′-azaspiro[oxazole-5,3′-bicyclo[2.2.2]octan]-2-amine]	< 100 nM	
c1nc(NC2=NC[C@@]3(CN4CCC3CC4)O2)cc(OC2CCCC2)n1 [Example 231, (R)—N-(6-(Cyclopentyloxy)pyrimidin-4-yl)-4H-1′-azaspiro[oxazole-5,3′-bicyclo[2.2.2]octan]-2-amine]	100 to 1000 nM	
CC(C)Oc1cc(NC2=NC[C@@]3(CN4CCC3CC4)O2)ncn1 [Example 232, (R)—N-(6-Isopropoxypyrimidin-4-yl)-4H-1′-azaspiro[oxazole-5,3′-bicyclo[2.2.2]octan]-2-amine]	100 to 1000 nM	
c1cc(NC2=NC[C@@]3(CN4CCC3CC4)O2)ccn1 [Example 235, (R)—N-(Pyridin-4-yl)-4H-1′-azaspiro[oxazole-5,3′-bicyclo[2.2.2]octan]-2-amine]	1000 to 100000 nM	
